Test results published in patent US10435396B2, “2-substituted indazoles, methods for producing same, pharmaceutical preparations that contain same, and use of same to produce drugs” (Bayer Pharma Aktiengesellschaft, priority 2016, dated 2019).
Like-named read-outs stand apart in the source and are kept apart here.

Experiments:
Assay type in all cases: cell-based, human
TMD-8 cells = assay: Cell proliferation measurement in TMD-8 cells; conditions: Cell Titer Glo, read-out: IC50 with respect to proliferation inhibition in TMD-8 cells
Procedure: Cell Proliferation Measurement The antiproliferative activity of the inventive compounds of the general formula (I) was examined in vitro in human ABC-DLBCL cells (see Table 3). For this purpose 4000 TMD-8 cells (both from ATCC) at 30 μl/cavity in growth medium (RPMI (Biochrom: FG 1215), 20% FCS (Biochrom: S 0615)) were transferred into a 384-cavity plate (Perkin Elmer, white) and incubated at 37° C. overnight. After 24 h, cells on one plate (0 h plate) were treated with 30 μl/cavity of CTG solution (Promega Cell Titer Glo (catalogue # […] and […])) and incubated at room temperature for 10 min, and luminescence was measured by means of a VICTOR V (Perkin Elmer), in order to determine cell viability on commencement of treatment. The cells on the test plate were treated with the inventive compounds of the general formula (I) and incubated at 37° C. for 72 h. The compounds were added to the cells in a 7-stage, 3-fold dilution series using an HP D300 digital dispenser. As control, the cells were treated with vehicle (DMSO). After 72 h, the cells were treated with 30 μl/cavity of CTG solution (Promega Cell Titer Glo (catalogue # […] and […])) and incubated at room temperature for 10 min, and luminescence was measured by means of a VICTOR V (Perkin Elmer), in order to determine cell viability at the end of treatment. The percentage effect on cell growth and the IC50 derived therefrom were determined for each test substance using the values from the 0 h plate (=maximum inhibition) and the DMSO control (=minimum inhibition). The IC50 values were calculated using a 4-parameter fit.

[1] = test system: secretion of TNF-α in THP-1 cells; assay: TNF-α secretion in THP-1 cells (LPS-triggered); conditions: LPS 0.05 μg/ml, read-out: IC50 with respect to the secretion of TNF-α in THP-1 cells
Procedure: TNF-α Secretion in THP-1 Cells
With the aid of this test, it is possible to test substances for their ability to inhibit secretion of TNF-α (tumour necrosis factor alpha) in THP-1 cells (human monocytic acute leukaemia cell line). TNF-α is a cytokine involved in inflammatory processes. In this test, TNF-α secretion is triggered by incubation with bacterial lipopolysaccharide (LPS).
THP-1 cells are kept in continuous suspension cell culture [RPMI 1460 medium with L-Glutamax (Gibco, Cat No. 61870-044) supplemented with foetal calf serum (FCS) 10% (Invitrogen, Cat No. 10082-147), 1% penicillin/streptomycin (Gibco BRL, Cat No. 15140-114)] and should not exceed a cell concentration of 1×10^6 cells/ml. The assay is carried out in cell culture medium (RPMI 1460 medium with L-Glutamax supplemented with FCS 10%).
In each case 2-2.5 μl of the cell suspension (corresponds to 4000 cells) per well were dispensed into a 384-well test plate (Greiner, Cat No. 784076), in each of which 40-50 nl substance had been dissolved in 100% DMSO. This was done using […] in the range from 20 μM to 0.073 nM for each substance. The cells were incubated at room temperature for 15 min. 2-2.5 μl of 0.1 μg/ml LPS (Sigma, Escherichia coli 055:B5, Cat. No. L5418) dissolved in cell culture medium (final concentration 0.05 μg/ml) were then dispensed into each well. As neutral control, cells were treated with 0.05 μg/ml LPS and 1% DMSO and, as inhibitor control, with 1% DMSO only.
The plates were centrifuged at 80 g for 30 s and incubated at 37° C., 5% CO2 and 95% atmospheric humidity for 17 h. The amount of TNF-α was determined using the TNF-alpha HTRF Detection Kit (Cisbio, Cat No. 62TNFPEB/C). To this end, 2 μl of the detection solution in each case, consisting of anti-TNF-α-XL665 conjugate and anti-TNF-α-cryptate conjugate dissolved in the reconstitution buffer in accordance with the manufacturer's instructions, were added for the HTRF (Homogeneous Time-Resolved Fluorescence) test. After the addition, the mixture was incubated either at room temperature for 3 h or at 4° C. overnight. The signals were then read at 620/665 nm using an HTRF-enabled measuring instrument such as the BMG PheraStar.
The activity of the substances is expressed as the ratio between neutral and inhibitor control in percent. The IC50 values were calculated using a 4-parameter fit.

[2] = test system: NF-kB activity in TMD-8-NF-kB-luc cells; assay: NF-kB reporter assay; conditions: 6 h, One-Glo, read-out: IC50 with respect to the inhibition of NF-kB activity in TMD-8-NF-kB-luc cells
Procedure: NF-kB Reporter Assay The effect of the inventive compounds of the general formula (I) on the NF-kB signalling pathway was examined in vitro in human DLBCL cells (see Table 4). 10 000 TMD-8-NF-kB-luc reporter cells at 30 μl/cavity in growth medium (RPMI (Biochrom: FG 1215), 20% FCS (Biochrom: S 0615)) were transferred into a 384-cavity plate (Perkin Elmer, white) and incubated at 37° C. overnight. After 24 h, the cells were treated with the test substances and incubated at 37° C. for 6 h. The test substances were added to the cells in a 7-stage, 3-fold dilution series using an HP D300 digital dispenser. As control, the cells were treated with the vehicle (DMSO). After 6 h, the cells were treated with 30 μl/well One-Glo solution (Promega, E6110) and incubated at room temperature for 10 min, and the luminescence was measured using a VICTOR V (Perkin Elmer) in order to determine the NF-kB reporter activity at the end of the treatment. The percentage effect of the NF-kB reporter activity and the IC50 derived therefrom were determined for each test substance with the aid of the values for an NF-kB pathway inhibitor (I-kappa B kinase inhibitor) (−)-7-[2-(cyclopropylmethoxy)-6-hydroxyphenyl]-5-[(3S)-3-piperidinyl]-1,4-dihydro-2H-pyrido[2,3-d][1,3]oxazin-2-one (CAS Number 600734-02-9; see WO 2003076447) (=maximum inhibition) and the DMSO control (=minimum inhibition). The IC50 values were calculated using a 4-parameter fit.

Row | Compound | IC50 ([1]; Homo sapiens, THP-1, 17 h) [µM] | IC50 ([2]; Homo sapiens) [µM] | IC50 ([1]; 17 h) [µM] | IC50 [2] [µM] | IC50 (TMD-8 cells; Homo sapiens, TMD8, 72 h) [µM] | IC50 (TMD-8 cells; 72 h) [µM]
1 | COc1cc2nn(C3CCN(CCO)CC3)cc2cc1NC(=O)c1cccc(C(F)(F)F)n1 [Example 13, N-{2-[1-(2-Hydroxyethyl)piperidin-4-yl]-6-methoxy-2H-indazol-5-yl}-6-(trifluoromethyl)pyridine-2-carboxamide] | 0.14 | 5.1 | – | – | 5.85 | –
2 | COc1cc2nn(C3CCNCC3)cc2cc1NC(=O)c1cccc(C(F)(F)F)n1 [Example 2, N-[6-Methoxy-2-(piperidin-4-yl)-2H-indazol-5-yl]-6-(trifluoromethyl)pyridine-2-carboxamide] | 0.13 | 9.45 | – | – | 8.61 | –
3 | COc1cc2nn(C3CCS(=N)(=O)CC3)cc2cc1NC(=O)c1cccc(C(F)(F)F)n1 (single isomer, unassigned) [Example 20, N-[2-(1-Imino-1-oxidohexahydro-1λ^4-thiopyran-4-yl)-6-methoxy-2H-indazol-5-yl]-6-(trifluoromethyl)pyridine-2-carboxamide] | – | – | 0.06 | 21.8 | – | 16.1
4 | COc1cc2nn(C3CCS(=N)(=O)CC3)cc2cc1NC(=O)c1cccc(C(F)(F)F)n1 (single isomer, unassigned) [Example 21, N-[2-(1-Imino-1-oxidohexahydro-1λ^4-thiopyran-4-yl)-6-methoxy-2H-indazol-5-yl]-6-(trifluoromethyl)pyridine-2-carboxamide] | – | – | 0.17 | 5.19 | 14.8 | –
5 | COc1cc2nn(C3CCN(C(=O)CO)CC3)cc2cc1NC(=O)c1cccc(C(F)(F)F)n1 [Example 5, N-[2-(1-Glycoloylpiperidin-4-yl)-6-methoxy-2H-indazol-5-yl]-6-(trifluoromethyl)pyridine-2-carboxamide] | 0.21 | 5.1 | – | – | 15.5 | –
6 | COc1cc2nn(C3CCOCC3)cc2cc1NC(=O)c1cccc(N2CCOCC2)n1 [Example 24, N-[6-Methoxy-2-(tetrahydro-2H-pyran-4-yl)-2H-indazol-5-yl]-6-(morpholin-4-yl)pyridine-2-carboxamide] | 0.17 | 22.6 | – | – | 28.1 | –
7 | COc1cc2nn(C3CCOCC3)cc2cc1NC(=O)c1cccc(C(F)(F)F)n1 [Example 1, N-[6-Methoxy-2-(tetrahydro-2H-pyran-4-yl)-2H-indazol-5-yl]-6-(trifluoromethyl)pyridine-2-carboxamide] | 0.21 | 15.6 | – | – | 28.2 | –
8 | CC(C)(O)c1cc2nn(C3CCNCC3)cc2cc1NC(=O)c1cccc(C(F)(F)F)n1 [Example 46, N-[6-(2-Hydroxypropan-2-yl)-2-(piperidin-4-yl)-2H-indazol-5-yl]-6-(trifluoromethyl)pyridine-2-carboxamide] | 0.09 | 13.4 | – | – | 14.1 | –

More lines, in order of falling IC50 ([1]; Homo sapiens, THP-1, 17 h), values ahead:

Row | IC50 ([1]; Homo sapiens, THP-1, 17 h) [µM] | IC50 ([2]; Homo sapiens) [µM] | IC50 ([1]; 17 h) [µM] | IC50 [2] [µM] | Compound | IC50 (TMD-8 cells; Homo sapiens, TMD8, 72 h) [µM] | IC50 (TMD-8 cells; 72 h) [µM]
9 | 0.41 | 2.68 | – | – | COc1cc2nn(C3CCOCC3)cc2cc1NC(=O)c1cccc(C(C)(C)O)n1 [Example 28, 6-(2-Hydroxypropan-2-yl)-N-[6-methoxy-2-(tetrahydro-2H-pyran-4-yl)-2H-indazol-5-yl]pyridine-2-carboxamide] | 3.51 | –
10 | 0.23 | 3.84 | – | – | COc1cc2nn(C3CCOCC3)cc2cc1NC(=O)c1cccc(C(F)F)n1 [Example 23, 6-(Difluoromethyl)-N-[6-methoxy-2-(tetrahydro-2H-pyran-4-yl)-2H-indazol-5-yl]pyridine-2-carboxamide] | 8.52 | –
11 | 0.17 | 28.9 | – | – | COc1cc2nn(C3CCN(C4COC4)CC3)cc2cc1NC(=O)c1cccc(C(F)(F)F)n1 [Example 10, N-{6-Methoxy-2-[1-(oxetan-3-yl)piperidin-4-yl]-2H-indazol-5-yl}-6-(trifluoromethyl)pyridine-2-carboxamide] | 23.3 | –
12 | 0.17 | 14.6 | – | – | CC(C)(O)c1cc2nn(C3CCS(=O)(=O)CC3)cc2cc1NC(=O)c1cccc(C(F)(F)F)n1 [Example 44, N-[2-(1,1-Dioxidotetrahydro-2H-thiopyran-4-yl)-6-(2-hydroxypropan-2-yl)-2H-indazol-5-yl]-6-(trifluoromethyl)pyridine-2-carboxamide] | 18.8 | –
13 | 0.14 | 7.41 | – | – | COc1cc2nn(C3CCN(C)CC3)cc2cc1NC(=O)c1cccc(C(F)(F)F)n1 [Example 4, N-[6-Methoxy-2-(1-methylpiperidin-4-yl)-2H-indazol-5-yl]-6-(trifluoromethyl)pyridine-2-carboxamide] | 4.08 | –
14 | 0.1 | 6.81 | – | – | COc1cc2nn(C3CC[S+]([O-])CC3)cc2cc1NC(=O)c1cccc(C(F)(F)F)n1 (racemic) [Example 12, rac-N-[6-Methoxy-2-(1-oxidotetrahydro-2H-thiopyran-4-yl)-2H-indazol-5-yl]-6-(trifluoromethyl)pyridine-2-carboxamide] | 11.5 | –
15 | 0.06 | 5.52 | – | – | COc1cc2nn([C@@H]3C[C@@H]4C[C@H]3CN4C)cc2cc1NC(=O)c1cccc(C(F)(F)F)n1 (relative stereo) [Example 18, rel-N-{6-Methoxy-2-[(1S,4S,5R)-2-methyl-2-azabicyclo[2.2.1]hept-5-yl]-2H-indazol-5-yl}-6-(trifluoromethyl)pyridine-2-carboxamide] | 3.45 | –
